In patent EP2245032B1, “FOLATES, COMPOSITIONS AND USES THEREOF” (priority 2008, dated 2009):
Counter-ions that a name gives are not always drawn.

Legend:
[1] = after twelve months; US 6,441,168 (Example 1); 525600 min; cited from earlier work
[2] = Stability of the powder in sealed aluminium foil bag, purity and titre by HPLC after 6 and 12 months; format: physicochemical; conditions: airtight container, protected from light; for Starting values Purity / Starting values Titre: start
Protocol: The stability of the compounds listed in the following table, under powder form and in sealed aluminium foil bag, was tested, keeping the samples in airtight container, protected from light and measuring the purity and the titre thereof after 6 and 12 months.
In particular, the stability of the acid moiety was observed by HPLC, detecting the purity and titre thereof.

[3] = general knowledge stated in the introduction; cited from earlier work

**Q.** For `CN1c2c(nc(N)[nH]c2=O)NCC1CNc1ccc(C(=O)NC(CCC(=O)O)C(=O)O)cc1` [5-methyl-(6S)-tetrahydrofolic acid calcium salts], which titre decrease [1] is on record?
**A.** about 1%

**Q.** With `CN1c2c(nc(N)[nH]c2=O)NCC1CNc1ccc(C(=O)N[C@@H](CCC(=O)O)C(=O)O)cc1` (stereo partly drawn) [D-GAL (6R,S)-5-MTHF, D-galactosamine 5-methyl-(6R,S)-tetrahydrofolate] as the molecule, how does the “After 6 months Purity” value [2] read?
**A.** 98.9

**Q.** What about the “After 6 months Titre” value [2] of the same molecule?
**A.** 55.2

**Q.** And the “After 12 months Purity” value [2]?
**A.** 98.7

**Q.** What about the “After 12 months Titre” value [2] of the same molecule?
**A.** 55.3

**Q.** And the “Starting values Purity” value [2]?
**A.** 99.1

**Q.** And the “Starting values Titre” value [2]?
**A.** 55.5

**Q.** Which “After 6 months Purity” value [2] does the source give for `Nc1nc2ncc(CNc3ccc(C(=O)N[C@@H](CCC(=O)O)C(=O)O)cc3)nc2c(=O)[nH]1` [D-GAL folate, D-galactosamine L-folate] here?
**A.** 99.1

**Q.** What about the “After 6 months Titre” value [2] of the same molecule?
**A.** 54.5

**Q.** What about the “After 12 months Purity” value [2] of the same molecule?
**A.** 98.7

**Q.** And the “After 12 months Titre” value [2]?
**A.** 54.2

**Q.** What about the “Starting values Purity” value [2] of the same molecule?
**A.** 99.2

**Q.** What about the “Starting values Titre” value [2] of the same molecule?
**A.** 54.8

**Q.** For `CN1c2c(nc(N)[nH]c2=O)NCC1CNc1ccc(C(=O)N[C@@H](CCC(=O)O)C(=O)O)cc1` (stereo partly drawn) [D-GLU 5-MTHF, D-glucosamine 5-methyl-(6R,S)-tetrahydrofolate], which “After 6 months Purity” value [2] is on record?
**A.** 98.9

**Q.** And the “After 6 months Titre” value [2]?
**A.** 55.0

**Q.** What about the “After 12 months Purity” value [2] of the same molecule?
**A.** 99.0

**Q.** What about the “After 12 months Titre” value [2] of the same molecule?
**A.** 54.8

**Q.** What about the “Starting values Purity” value [2] of the same molecule?
**A.** 99.1

**Q.** And the “Starting values Titre” value [2]?
**A.** 55.2

**Q.** What does the source list for `CN1c2c(nc(N)[nH]c2=O)NCC1CNc1ccc(C(=O)NC(CCC(=O)O)C(=O)O)cc1` [D-GLU (6S)-5-MTHF, D-glucosamine 5-methyl-(6S)-tetrahydrofolate]?
**A.** After 6 months Purity [2]: 99.0; After 6 months Titre [2]: 55.4; After 12 months Purity [2]: 98.5; After 12 months Titre [2]: 55.1; Starting values Purity [2]: 99.3; Starting values Titre [2]: 55.7

**Q.** What does the source list for `Nc1nc2ncc(CNc3ccc(C(=O)N[C@@H](CCC(=O)O)C(=O)O)cc3)nc2c(=O)[nH]1` [D-GLU folate, D-glucosamine L-folate]?
**A.** After 6 months Purity [2]: 98.8; After 6 months Titre [2]: 54.3; After 12 months Purity [2]: 98.7; After 12 months Titre [2]: 54.0; Starting values Purity [2]: 99.1; Starting values Titre [2]: 54.6

**Q.** For `Nc1nc2ncc(CNc3ccc(C(=O)N[C@@H](CCC(=O)O)C(=O)O)cc3)nc2c(=O)[nH]1` [Folic acid, N-[4-[[(2-amino-1,4-dihydro-4-oxo-6-pteridinyl)methyl]amino]benzoyl]-L-glutamic acid], which “solubility in water (in words)” value [3] is on record?
**A.** very slightly soluble in water
